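Grown in 96-well plates, cells were treated for 48 hours with each compound at five concentrations. Insufficient inhibition: endpoint recorded as highest concentration tested. Abbreviation: GI50, concentration required for 50% inhibition of growth.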 The source made the active and inactive calls. Cut-off read from the data, not from the text of the source: active = GI50 up to about 1.1 µM and inactive = higher.
Columns and labels:
Assay in all cases: DTP human tumour cell line panel, 48 h
SK-MEL-2 = test system: SK-MEL-2
DMS-273 = test system: DMS-273
XF498 = test system: XF498
HCT-15 = test system: HCT-15
HL-60 = test system: HL-60
A549 = test system: A549
SN12C = test system: SN12C
NCI-H23 = test system: NCI-H23
KM12 = test system: KM12
SK-OV-3 = test system: SK-OV-3
K562 = test system: K562
HOP-92 = test system: HOP-92
MOLT-4 = test system: MOLT-4
LXFL 529 = test system: LXFL 529
SK-MEL-28 = test system: SK-MEL-28
HOP-18 = test system: HOP-18
IGROV-1 = test system: IGROV-1
M19-MEL = test system: M19-MEL
Malme-3M = test system: Malme-3M
HT-29 = test system: HT-29
NCI-H226 = test system: NCI-H226
OVCAR-3 = test system: OVCAR-3
DMS-114 = test system: DMS-114
NCI-H522 = test system: NCI-H522
M14 = test system: M14
LOX IMVI = test system: LOX IMVI
SF-268 = test system: SF-268
RXF 393 = test system: RXF 393
SNB-19 = test system: SNB-19
CAKI-1 = test system: CAKI-1
UACC-257 = test system: UACC-257
UO-31 = test system: UO-31
HCT-116 = test system: HCT-116
ACHN = test system: ACHN
SF-539 = test system: SF-539
HCC 2998 = test system: HCC 2998
SK-MEL-5 = test system: SK-MEL-5
OVCAR-4 = test system: OVCAR-4
A498 = test system: A498
SF-295 = test system: SF-295
TK-10 = test system: TK-10
OVCAR-5 = test system: OVCAR-5
NCI-H460 = test system: NCI-H460
786-0 = test system: 786-0
EKVX = test system: EKVX
OVCAR-8 = test system: OVCAR-8
SR = test system: SR
UACC-62 = test system: UACC-62
SNB-78 = test system: SNB-78
HOP-62 = test system: HOP-62
CCRF-CEM = test system: CCRF-CEM
SNB-75 = test system: SNB-75
KM-20L2 = test system: KM-20L2
U-251 = test system: U-251
RPMI-8226 = test system: RPMI-8226
DLD-1 = test system: DLD-1
COLO 205 = test system: COLO 205

Measured: GI50

COC(=O)[C@@]1(C(C)CC(=O)O)CCCCC1=O (some centres undefined)
inactive: SK-MEL-2 > 100 µM | DMS-273 19.9 µM | XF498 > 100 µM | HL-60 > 100 µM | A549 > 100 µM | SN12C > 100 µM | NCI-H23 > 100 µM | KM12 > 100 µM | SK-OV-3 > 100 µM | K562 > 100 µM | HOP-92 > 100 µM | MOLT-4 > 100 µM | LXFL 529 > 100 µM | SK-MEL-28 > 100 µM | HOP-18 > 100 µM | IGROV-1 > 100 µM | M19-MEL > 100 µM | Malme-3M > 100 µM | HT-29 > 100 µM | NCI-H226 > 100 µM | OVCAR-3 > 100 µM | DMS-114 82.8 µM | NCI-H522 > 100 µM | M14 > 100 µM | LOX IMVI 93.8 µM | SF-268 > 100 µM | RXF 393 > 100 µM | SNB-19 > 100 µM | CAKI-1 > 100 µM | UACC-257 > 100 µM | UO-31 > 100 µM | HCT-116 > 100 µM | ACHN > 100 µM | SF-539 > 100 µM | HCC 2998 > 100 µM | SK-MEL-5 > 100 µM | OVCAR-4 > 100 µM | A498 > 100 µM | SF-295 > 100 µM | TK-10 > 100 µM | OVCAR-5 > 100 µM | NCI-H460 > 100 µM | 786-0 27 µM | EKVX > 100 µM | OVCAR-8 > 100 µM | SR 37.8 µM | UACC-62 > 100 µM | SNB-78 > 100 µM | HOP-62 > 100 µM | CCRF-CEM > 100 µM | SNB-75 > 100 µM | KM-20L2 > 100 µM | U-251 > 100 µM | RPMI-8226 34.3 µM | DLD-1 > 100 µM | COLO 205 50.7 µM
42.6 µM: HCT-15

O=C(NN1C(=O)C(Cl)C1c1c(O)ccc2ccccc12)c1ccccc1O (centres undefined)
> 100 µM: HCT-15
inactive: SK-MEL-2 > 100 µM | DMS-273 > 100 µM | XF498 > 100 µM | HL-60 > 100 µM | A549 > 100 µM | SN12C > 100 µM | NCI-H23 > 100 µM | KM12 > 100 µM | SK-OV-3 > 100 µM | K562 > 100 µM | MOLT-4 > 100 µM | LXFL 529 > 100 µM | SK-MEL-28 > 100 µM | HOP-18 > 100 µM | IGROV-1 > 100 µM | M19-MEL > 100 µM | Malme-3M > 100 µM | HT-29 > 100 µM | NCI-H226 > 100 µM | OVCAR-3 > 100 µM | DMS-114 > 100 µM | NCI-H522 > 100 µM | M14 > 100 µM | LOX IMVI > 100 µM | SF-268 > 100 µM | RXF 393 > 100 µM | SNB-19 > 100 µM | UACC-257 > 100 µM | UO-31 > 100 µM | HCT-116 > 100 µM | ACHN > 100 µM | SF-539 > 100 µM | SK-MEL-5 > 100 µM | OVCAR-4 > 100 µM | A498 8.45 µM | SF-295 > 100 µM | TK-10 > 100 µM | NCI-H460 > 100 µM | 786-0 > 100 µM | OVCAR-8 > 100 µM | UACC-62 > 100 µM | SNB-78 > 100 µM | CCRF-CEM > 100 µM | SNB-75 > 100 µM | U-251 > 100 µM | DLD-1 > 100 µM

— ChEMBL document CHEMBL1201862, “PubChem BioAssay data set” (2004)
